Data published in paper PMC9964505 (International Journal of Molecular Sciences, 2023).

Legend:
[1] = system: persistent mechanical pain in mouse models; design: method as in PMID 34039739; settings: hindpaw injection; mouse plantar incision, CFA and paclitaxel models; cited from earlier work
[2] = system: mechanical hypersensitivity in a mouse SNI model; design: method as in PMID 34039739; settings: intra-plantar injection; cited from earlier work
uninjured mice = system: uninjured mice; design: method as in PMID 34039739; settings: peripheral dosing; cited from earlier work
[3] = system: trinitrobenzene sulfonic acid-induced colonic hypersensitivity in male rats; test: colonic distension test in TNBS-induced colonic hypersensitivity model; format: in vivo, rat; settings: for mean percentual colonic anti-hypersensitivity activity: mean of four trials (30, 50, 70, 120 min)
[4] = terminal plasma and brain exposure in female rats (PRS study); format: in vivo, rat; settings: 3-30 mg/kg p.o.
Description: Briefly, total blood was collected by intra-cardiac puncture on anaesthetized (3% Isoflurane, 3 L/min) animals into pre-cooled K3EDTA tubes. […] At least 100–200 µL of plasma was gently collected and immediately frozen at −80 °C. After decapitation, the whole brain was collected, rinsed with fresh ice-cold 0.9% NaCl solution, and thereafter frozen in dry ice and stored in a polypropylene tube at −80 °C.

[5] = plasma and brain exposure in male rats (CCI study and satellite rats); format: in vivo, rat; settings: independent of dose or sampling time
Description: Terminal samples for concentration analyses were also collected from HC-070-treated sciatic nerve-injured male animals at the end of the paw pressure test, and from female rats at the end of the last colonic distension test in the partial restraint stress (PRS) study. Briefly, total blood was collected by intra-cardiac puncture on anaesthetized (3% Isoflurane, 3 L/min) animals into pre-cooled K3EDTA tubes. Samples were gently mixed, placed on ice, and centrifuged at the latest within 30 min after collection at 1600× g or 1710× g for 10 min at 4 °C. At least 100–200 µL of plasma was gently collected and immediately frozen at −80 °C. After decapitation, the whole brain was collected, rinsed with fresh ice-cold 0.9% NaCl solution, and thereafter frozen in dry ice and stored in a polypropylene tube at −80 °C.

[6] = plasma protein binding, rapid equilibrium dialysis; format: in vitro ADME; settings: rat plasma, 1 µg/mL, 37 °C, 4 h
Description: Plasma protein binding studies were carried out in male Wistar Hannover rat plasma with heparin as the anticoagulant. All plasma samples were obtained from BioreclamationIVT (Baltimore, MD, USA). A Pierce Rapid Equilibrium Dialysis Device (RED) was used for the experiments. Aliquots of plasma (300 µL) containing the compound of interest (1 µg/mL) and phosphate-buffered saline (PBS) (500 µL) were added to the sample chamber and buffer chamber, respectively, on the RED device. The loaded dialysis plate was sealed and placed on a pre-heated shaker, and incubated at physiological temperature (+37 °C) for 4 h. After the incubation, aliquots of 50 µL for the donor and 200 µL for the receiver were removed from the chambers and placed into a 96-well plate. Plasma (50 µL) was added to the wells containing the receiver samples and 200 µL of PBS was added to the wells containing the donor samples. Two volumes of ACN were added to each well, and the samples were mixed and centrifuged, after which the supernatant was analysed by LC-MS/MS.

[7] = brain homogenate binding, rapid equilibrium dialysis; format: in vitro ADME, rat; settings: as fraction
Description: The brain homogenate binding study was carried out in male Wistar Hannover brain homogenate, obtained from BioreclamationIVT (Baltimore, MD, USA). Brains were homogenized with two volumes of PBS prior to initiating the experiment. The instrumentation, volume ratios, incubation conditions, and sample preparation were the same as described above for plasma protein binding (brain homogenate used instead of plasma).

incised mice = system: incised mice; design: method as in PMID 34039739; settings: hindpaw administration; cited from earlier work
mice = settings: mouse, in vivo, po; cited from earlier work
[8] = system: partial restraint stress-induced colonic hypersensitivity in female rats; test: colonic distension test in partial restraint stress model; settings: for percentual anti-hypersensitivity activity on colonic hypersensitivity: mean of three trials
Description: Animals were placed for 2 h in a plexiglas restraint cylinder in order to restrict, but not impede, body movements. Naïve control animals were allowed to move freely in their cages. Immediately after completion of the 2 h restraint stress period, 3 consecutive determinations of colonic sensitivity were performed every 20 min.
Colonic sensitivity was assessed by measuring the intra-colonic pressure required to induce a pain-related behavioral response during colonic distension (Electronic barostat, Distender Series IIRTM). Sedation is considered as a confounding factor in the assessment of pain, and therefore all experiments were performed in non-sedated conscious rats. In order to reduce bias, all experiments were performed by the same dedicated personnel within a study. The visceral pressure range was studied from 5 to 75 mmHg, but pain responses were typically evident at 30–35 mmHg. Briefly, a 5 cm balloon was gently inserted into the colon of conscious rats at 7 to 10 cm from the anus, and the catheter was taped to the base of the tail. After a 30 min acclimation period with the inserted balloon, colonic pressure was increased by 5 mmHg steps every 30 s, from 5 to 75 mmHg (cut-off), until pain-related elevation of the hind part of the rat body and/or a clearly visible abdominal contraction corresponding to severe cramp were evident.
The formula: ((Distension thresholdTNBS/PRS + veh − Distension thresholdnaïve + veh)/(Distension thresholdnaïve + veh)) × 100, was used to calculate percentual variation due to trinitrobenzene sulfonic acid administration or partial restraint stress, as compared to naïve rats. […] Statistical analyses were conducted using GraphPad Prism (version 8.4.2) and p < 0.05 was considered to represent a significant difference.

[9] = system: CCI-induced mechanical hypersensitivity in male rats; test: paw pressure test in chronic constriction injury (CCI) model
Description: Prior to behavioral studies, the rats were habituated to the experimental conditions and handling. The common sciatic nerve of the right hindpaw was injured at the level of the middle of the thigh. Proximal to the sciatic trifurcation, four loose ligatures were tied around it with about 1 mm spacing using Mersilk sutures in anaesthetized rats (Xylazine 10 mg/kg i.p., Ketamine 60 mg/kg i.p.). Great care was taken to tie the ligatures, such that the diameter of the nerve was seen to be just barely constricted. Sham animals received only a skin and muscle incision. Fourteen days after the surgery, individual baseline values of the withdrawal threshold evoked by squeezing of the hind limb between a flat surface and a blunt pointer with an analgesimeter (Ugo Basile, Gemonio, Italy) were determined on both hindpaws while the animal was gently held in a restrained position. The analgesimeter exerted a steadily increasing force, and the reaction threshold was determined as the pressure (g) required to elicit paw withdrawal and/or vocalization. […] Dosing and testing were performed in a random order.
Statistical analyses were conducted using GraphPad Prism (version 8.4.2) and p < 0.05 was considered to represent a significant difference.

[10] = system: mustard oil-induced visceral pain-related behaviors and hindpaw mechanical hypersensitivity; settings: intraperitoneal, and oral to a lesser extent; cited from earlier work
[11] = system: rat spared nerve injury model of neuropathic pain; settings: amygdaloid application; cited from earlier work

c1ccc(Cn2c(NCc3ccco3)nc3ccccc32)cc1 [AC1903]
effect on persistent mechanical pain [1]: prevents the persistent mechanical pain | effect on mechanical hypersensitivity [2]: failed to attenuate | effect on naïve mechanical sensitivity (uninjured mice): did not change

Cn1c(=O)n(CCCO)c(=O)c2c1nc(Oc1cccc(Cl)c1)n2Cc1ccc(Cl)cc1 [HC-070]
effect on TNBS-induced colonic hypersensitivity (colonic distension threshold) ([3]; 3 mg/kg p.o., at 70 and 120 min): significantly and in a dose-dependent manner attenuated | mean percentual colonic anti-hypersensitivity activity ([3]; 3 mg/kg p.o.): 58% | effect on TNBS-induced colonic hypersensitivity (colonic distension threshold) ([3]; 10 mg/kg p.o., all time points (30-120 min)): reversed | mean percentual colonic anti-hypersensitivity activity ([3]; 10 mg/kg p.o.): 99% | effect on TNBS-induced colonic hypersensitivity (colonic distension threshold) ([3]; 30 mg/kg p.o., all time points (30-120 min)): reversed | mean percentual colonic anti-hypersensitivity activity ([3]; 30 mg/kg p.o.): 134% | KP,uu,BR (partitioning coefficient between unbound brain and plasma exposures) [4]: 0.5–0.8 | KP,uu,BR (partitioning coefficient between unbound brain and plasma exposures) [5]: 0.4–0.6 | plasma protein binding [6]: 99.5% | unbound fraction in rat brain homogenate [7]: 0.001 | effect on established postoperative mechanical hypersensitivity (incised mice): alleviated | effect on locomotor activity (mice): nor did oral HC-070 treatment alter the locomotor activity | percentual anti-hypersensitivity activity on colonic hypersensitivity ([8]; 3 mg/kg p.o.): 100% | percentual anti-hypersensitivity activity on colonic hypersensitivity ([8]; 10 mg/kg p.o.): 181% | percentual anti-hypersensitivity activity on colonic hypersensitivity ([8]; 30 mg/kg p.o.): 188% | effect on colonic sensibility after PRS ([8]; oral doses of 3, 10 and 30 mg/kg): dose-dependently restored | reversal percentage of CCI-induced mechanical hypersensitivity, injured paw ([9]; 3 mg/kg p.o., 45 min): 34% | effect on CCI-induced mechanical hypersensitivity (withdrawal threshold, injured paw) ([9]; 10 mg/kg p.o., 75 min): significantly attenuated | reversal percentage of CCI-induced mechanical hypersensitivity, injured paw ([9]; 10 mg/kg p.o., 75 min): 51% | effect on CCI-induced mechanical hypersensitivity (withdrawal threshold, injured paw) ([9]; 30 mg/kg p.o., 45 min): significantly attenuated | reversal percentage of CCI-induced mechanical hypersensitivity, injured paw ([9]; 30 mg/kg p.o., 45 min): 62%

CN1CC[C@]23c4c5ccc(O)c4O[C@H]2[C@@H](O)C=C[C@H]3[C@H]1C5 [morphine]
effect on PRS-lowered visceral pain threshold ([8]; 1 mg/kg s.c.): significant reversal | percentual anti-hypersensitivity activity on colonic hypersensitivity ([8]; 1 mg/kg s.c.): 272% | effect on mechanical withdrawal threshold of the non-injured control paw ([9]; 3 mg/kg s.c.): statistically significantly increased | effect on sustained CCI-induced mechanical hypersensitivity (reversal) ([9]; 3 mg/kg s.c., first two time points (45, 75 min)): abolished

Cc1cc(N2CCCCC2)nc2ccccc12 [ML-204]
effect on mustard oil-induced visceral pain-related behaviors and hindpaw mechanical hypersensitivity [10]: dose-dependently attenuated | effect on mechanical hypersensitivity and affective-like spontaneous pain-related behavior [11]: dose-dependent suppression
